According to patent US9321788B2, “Tricyclic antibiotics” (BASILEA PHARMACEUTICA AG, priority 2011, dated 2016):

Each compound was assayed on Escherichia coli ATCC25922 (assay: Antimicrobial activity assay (MIC, broth microdilution)).
Assay type: cell-based
Method: (§1) Antimicrobial Activity Assay
The antibacterial activity of compounds is determined by the minimal inhibitory concentration (MIC) method. MICs for all bacteria except pneumococci and Haemophilus influenzae are obtained by broth microdilution with cation-adjusted Mueller-Hinton broth (CAMHB; BBL), according to CLSI guidelines (National Committee for Clinical Laboratory Standards. 2003. Methods for dilution antimicrobial susceptibility tests for bacteria that grow aerobically, 5th ed.; a approved standard M7-A6. National Committee for Clinical Laboratory Standards, Wayne, Pa.), with the following modifications: (i) for pneumococci CAMHB is supplemented with 5% (^v/v) horse serum; (ii) for Haemophilus influenzae CAMHB is supplemented with 5% (^v/v) Fildes enrichment (BBL) (Pankuch, G. A., Hoellman, D. B., Lin, G., Bajaksouzian, S., Jacobs, M. R., and Appelbaum, P. C. 1998. Activity of HMR 3647 compared to those of five agents against Haemophilus influenzae and Moraxella catarrhalis by MIC determination and time-kill assay. Antimicrob. Agents Chemother. 42:3032-3034). Microtiter plates are incubated at 35° C. in ambient air for 20 to 24 h, then inspected using an illuminated microtiter plate reader fitted with a magnifying mirror (MIC 2000; Cooke Laboratory Products, Alexandria, Va.). […]
For `COc1ccc2ncc3c(c2n1)CC(CN1CCC(NC(=O)c2ccc4c(c2)NC(=O)CS4)CC1)CO3` (stereo not drawn) [Example 1, 3-oxo-3,4-dihydro-2H-benzo[1,4]thiazine-6-carboxylic acid [1-(6-methoxy-3,4-dihydro-2H-1-oxa-5,9-diaza-phenanthren-3-ylmethyl)-piperidin-4-yl]-amide], the MIC was ≤ 8 µg/mL.

The compounds below were run on Streptococcus pneumoniae ATCC49619 (assay: Antimicrobial activity assay (MIC, broth microdilution, CAMHB with 5% horse serum)).
Assay type: cell-based
Method: as §1
The antibacterial activity of compounds is determined by the minimal inhibitory concentration (MIC) method. MICs for all bacteria except pneumococci and Haemophilus influenzae are obtained by broth microdilution with cation-adjusted Mueller-Hinton broth (CAMHB; BBL), according to CLSI guidelines (National Committee for Clinical Laboratory Standards. 2003. Methods for dilution antimicrobial susceptibility tests for bacteria that grow aerobically, 5th ed.; a approved standard M7-A6. National Committee for Clinical Laboratory Standards, Wayne, Pa.), with the following modifications: (i) for pneumococci CAMHB is supplemented with 5% (^v/v) horse serum; (ii) for Haemophilus influenzae CAMHB is supplemented with 5% (^v/v) Fildes enrichment (BBL) (Pankuch, G. A., Hoellman, D. B., Lin, G., Bajaksouzian, S., Jacobs, M. R., and Appelbaum, P. C. 1998. Activity of HMR 3647 compared to those of five agents against Haemophilus influenzae and Moraxella catarrhalis by MIC determination and time-kill assay. Antimicrob. Agents Chemother. 42:3032-3034). Microtiter plates are incubated at 35° C. in ambient air for 20 to 24 h, then inspected using an illuminated microtiter plate reader fitted with a magnifying mirror (MIC 2000; Cooke Laboratory Products, Alexandria, Va.). Compounds of the present invention are tested against several bacteria strains comprising some Acinetobacter baumannii, Enterococcus faecalis, Enterococcus faecium, Escherichia coli, Haemophilus influenzae, Klebsiella pneumoniae, Pseudomonas aeruginosa, Staphylococcus aureus, Staphylococcus epidermidis, Streptococcus pyogenes; Enterobacter cloacae and Streptococcus pneumoniae.
With `COc1ccc2ncc3c(c2c1F)CC(CN1CCC(NC(=O)c2ccc4c(c2)NC(=O)CS4)CC1)CO3` (stereo not drawn) [Example 45, 3-oxo-3,4-dihydro-2H-benzo[1,4]thiazine-6-carboxylic acid [1-(5-fluoro-6-methoxy-3,4-dihydro-2H-1-oxa-9-aza-phenanthren-3-ylmethyl)-piperidin-4-yl]-amide] the MIC was ≤ 8 µg/mL. `COc1ccc2ncc3c(c2c1)OC(CN1CC(NC(=O)c2ccc4c(c2)NC(=O)CS4)C1)C3` (stereo not drawn) [Example 39, 3-oxo-3,4-dihydro-2H-benzo[1,4]thiazine-6-carboxylic acid [1-(8-methoxy-2,3-dihydro-furo[3,2-c]quinolin-2-ylmethyl)-azetidin-3-yl]-amide] was tested, and the MIC was ≤ 8 µg/mL. For `COc1ccc2ncc3c(c2c1)CC(CN1CC(NC(=O)c2ccc4c(c2)NC(=O)CS4)C1)CS3` (stereo not drawn) [Example 49, 3-oxo-3,4-dihydro-2H-benzo[1,4]thiazine-6-carboxylic acid [1-(6-methoxy-3,4-dihydro-2H-1-thia-9-aza-phenanthren-3-ylmethyl)-azetidin-3-yl]-amide], the MIC was ≤ 8 µg/mL. For `COc1ccc2ncc3c(c2c1)CC(C(O)[C@H]1CC[C@H](NC(=O)c2ccc4c(c2)NC(=O)CS4)CC1)O3` (relative stereo) [Example 59, 3-oxo-3,4-dihydro-2H-benzo[1,4]thiazine-6-carboxylic acid {trans-4-[hydroxy-(8-methoxy-1,2-dihydro-furo[2,3-c]quinolin-2-yl)-methyl]-cyclohexyl}-amide], the MIC was ≤ 8 µg/mL. With `COc1ccc2ncc3c(c2c1)CC(CN1CC(NC(=O)c2ccc4c(c2)NC(=O)CS4)CC1CO)CS3` (stereo not drawn) [Example 51, 3-oxo-3,4-dihydro-2H-benzo[1,4]thiazine-6-carboxylic acid [5-hydroxymethyl-1-(6-methoxy-3,4-dihydro-2H-1-thia-9-aza-phenanthren-3-ylmethyl)-pyrrolidin-3-yl]-amide] the MIC was ≤ 8 µg/mL. In the case of `COc1ccc2ncc3c(c2c1)CC(C[C@H]1CC[C@H](NC(=O)c2ccc4c(c2)NC(=O)CO4)CC1)CO3` (relative stereo) [Example 36, 3-oxo-3,4-dihydro-2H-benzo[1,4]oxazine-6-carboxylic acid [trans-4-(6-methoxy-3,4-dihydro-2H-1-oxa-9-aza-phenanthren-3-ylmethyl)-cyclohexyl]-amide], the MIC is reported as ≤ 8 µg/mL. With `COc1ccc2ncc3c(c2n1)CC(CN1CCC(NC(=O)c2ccc4c(c2)NC(=O)CS4)CC1)O3` (stereo not drawn) [Example 54, 3-oxo-3,4-dihydro-2H-benzo[1,4]thiazine-6-carboxylic acid [1-(8-methoxy-1,2-dihydro-3-oxa-5,9-diaza-cyclopenta[a]naphthalen-2-ylmethyl)-piperidin-4-yl]-amide] the MIC was ≤ 8 µg/mL. With `COc1ccc2ncc3c(c2n1)CC(CN1CCC(NC(=O)c2ccc4c(c2)NC(=O)CS4)CC1)CO3` (stereo not drawn) [Example 1, 3-oxo-3,4-dihydro-2H-benzo[1,4]thiazine-6-carboxylic acid [1-(6-methoxy-3,4-dihydro-2H-1-oxa-5,9-diaza-phenanthren-3-ylmethyl)-piperidin-4-yl]-amide] the MIC was ≤ 8 µg/mL. In the case of `COc1ccc2ncc3c(c2c1)CC(CN1CCC(NCc2ccc4c(c2)NC(=O)CS4)CC1)CO3` (stereo not drawn) [Example 34, 6-{[1-(6-methoxy-3,4-dihydro-2H-1-oxa-9-aza-phenanthren-3-ylmethyl)-piperidin-4-ylamino]-methyl}-4H-benzo[1,4]thiazin-3-one], the MIC is reported as ≤ 8 µg/mL. `COc1ccc2ncc3c(c2c1)CC(Cn1cc(NC(=O)c2ccc4c(c2)NC(=O)CS4)cn1)CO3` (stereo not drawn) [Example 31, 3-oxo-3,4-dihydro-2H-benzo[1,4]thiazine-6-carboxylic acid [1-(6-methoxy-3,4-dihydro-2H-1-oxa-9-aza-phenanthren-3-ylmethyl)-1H-pyrazol-4-yl]-amide] was tested, and the MIC was ≤ 8 µg/mL. For `COc1ccc2ncc3c(c2c1)CC(CN1CCC(NC(=O)c2ccc4c(c2)NC(=O)CS4)CC1)O3` (stereo not drawn) [Example 55, 3-oxo-3,4-dihydro-2H-benzo[1,4]thiazine-6-carboxylic acid [1-(8-methoxy-1,2-dihydro-furo[2,3-c]quinolin-2-ylmethyl)-piperidin-4-yl]-amide], the MIC was ≤ 8 µg/mL.
